Experimental data published in ChEMBL document CHEMBL4219149, “Design and synthesis of triple inhibitors of janus kinase (JAK), histone deacetylase (HDAC) and Heat Shock Protein 90 (HSP90)” (Bioorg Med Chem Lett, 2018).

How the values were obtained:
Heat shock protein HSP90 = Heat shock protein HSP90 (Homo sapiens, UniProt P07900+P08238); assay: Inhibition of geldanamycin-based probe binding to HSP90 (unknown origin) by fluorescence polarization assay; format: protein assay
Histone deacetylase 1 = Histone deacetylase 1 (Homo sapiens, UniProt Q13547); assay: Inhibition of HDAC1 (unknown origin) using Arg-His-Lys-Lys(Ac) as substrate after 2 hrs by fluorescence analysis
[1] = biological target: T1, Protein deacetylase HDAC6 (Homo sapiens, UniProt Q9UBN7); assay: Inhibition of HDAC6 (unknown origin) using Arg-His-Lys-Lys(Ac) as substrate after 2 hrs by fluorescence analysis
T1 sequence (Q9UBN7 whole entry): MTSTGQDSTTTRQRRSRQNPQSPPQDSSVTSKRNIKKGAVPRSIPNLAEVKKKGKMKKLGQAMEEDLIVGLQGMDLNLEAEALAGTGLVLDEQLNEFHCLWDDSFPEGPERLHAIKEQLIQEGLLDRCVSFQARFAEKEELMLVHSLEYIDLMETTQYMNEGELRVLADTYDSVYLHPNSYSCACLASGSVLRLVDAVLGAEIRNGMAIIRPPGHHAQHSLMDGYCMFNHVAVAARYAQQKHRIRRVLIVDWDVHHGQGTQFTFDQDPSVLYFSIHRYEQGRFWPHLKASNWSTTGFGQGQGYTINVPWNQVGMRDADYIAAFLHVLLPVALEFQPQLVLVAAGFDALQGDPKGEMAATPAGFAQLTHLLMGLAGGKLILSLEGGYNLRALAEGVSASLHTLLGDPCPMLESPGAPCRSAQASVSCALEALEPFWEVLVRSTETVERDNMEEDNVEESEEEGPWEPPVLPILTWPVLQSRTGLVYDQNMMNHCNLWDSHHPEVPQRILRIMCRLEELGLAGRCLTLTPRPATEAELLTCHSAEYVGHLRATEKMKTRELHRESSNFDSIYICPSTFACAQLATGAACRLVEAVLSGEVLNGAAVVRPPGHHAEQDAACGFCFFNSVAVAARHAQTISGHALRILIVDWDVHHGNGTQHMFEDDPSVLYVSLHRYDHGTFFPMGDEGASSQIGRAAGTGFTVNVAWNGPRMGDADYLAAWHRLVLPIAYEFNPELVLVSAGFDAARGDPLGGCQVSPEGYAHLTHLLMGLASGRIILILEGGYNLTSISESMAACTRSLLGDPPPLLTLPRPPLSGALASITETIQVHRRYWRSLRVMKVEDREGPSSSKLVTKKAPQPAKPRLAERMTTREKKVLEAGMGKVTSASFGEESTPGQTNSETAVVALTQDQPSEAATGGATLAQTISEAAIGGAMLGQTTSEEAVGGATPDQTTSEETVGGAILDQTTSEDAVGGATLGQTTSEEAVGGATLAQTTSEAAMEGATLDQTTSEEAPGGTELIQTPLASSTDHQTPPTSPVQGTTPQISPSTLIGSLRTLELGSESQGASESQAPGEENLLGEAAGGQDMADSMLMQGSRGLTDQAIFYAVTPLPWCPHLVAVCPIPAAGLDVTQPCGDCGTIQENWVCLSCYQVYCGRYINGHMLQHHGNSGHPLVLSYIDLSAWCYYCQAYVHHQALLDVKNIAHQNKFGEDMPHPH

[2] = biological target: Heat shock protein HSP 90-alpha (Homo sapiens, UniProt P07900); assay: Inhibition of HSP90alpha (unknown origin)
[3] = biological target: Tyrosine-protein kinase JAK2 (Homo sapiens, UniProt O60674); assay: Inhibition of human JAK2 using poly[Glu:Tyr] (4:1) as substrate in presence of [gamma33P]-ATP
Chain of Tyrosine-protein kinase JAK2 (O60674 whole entry): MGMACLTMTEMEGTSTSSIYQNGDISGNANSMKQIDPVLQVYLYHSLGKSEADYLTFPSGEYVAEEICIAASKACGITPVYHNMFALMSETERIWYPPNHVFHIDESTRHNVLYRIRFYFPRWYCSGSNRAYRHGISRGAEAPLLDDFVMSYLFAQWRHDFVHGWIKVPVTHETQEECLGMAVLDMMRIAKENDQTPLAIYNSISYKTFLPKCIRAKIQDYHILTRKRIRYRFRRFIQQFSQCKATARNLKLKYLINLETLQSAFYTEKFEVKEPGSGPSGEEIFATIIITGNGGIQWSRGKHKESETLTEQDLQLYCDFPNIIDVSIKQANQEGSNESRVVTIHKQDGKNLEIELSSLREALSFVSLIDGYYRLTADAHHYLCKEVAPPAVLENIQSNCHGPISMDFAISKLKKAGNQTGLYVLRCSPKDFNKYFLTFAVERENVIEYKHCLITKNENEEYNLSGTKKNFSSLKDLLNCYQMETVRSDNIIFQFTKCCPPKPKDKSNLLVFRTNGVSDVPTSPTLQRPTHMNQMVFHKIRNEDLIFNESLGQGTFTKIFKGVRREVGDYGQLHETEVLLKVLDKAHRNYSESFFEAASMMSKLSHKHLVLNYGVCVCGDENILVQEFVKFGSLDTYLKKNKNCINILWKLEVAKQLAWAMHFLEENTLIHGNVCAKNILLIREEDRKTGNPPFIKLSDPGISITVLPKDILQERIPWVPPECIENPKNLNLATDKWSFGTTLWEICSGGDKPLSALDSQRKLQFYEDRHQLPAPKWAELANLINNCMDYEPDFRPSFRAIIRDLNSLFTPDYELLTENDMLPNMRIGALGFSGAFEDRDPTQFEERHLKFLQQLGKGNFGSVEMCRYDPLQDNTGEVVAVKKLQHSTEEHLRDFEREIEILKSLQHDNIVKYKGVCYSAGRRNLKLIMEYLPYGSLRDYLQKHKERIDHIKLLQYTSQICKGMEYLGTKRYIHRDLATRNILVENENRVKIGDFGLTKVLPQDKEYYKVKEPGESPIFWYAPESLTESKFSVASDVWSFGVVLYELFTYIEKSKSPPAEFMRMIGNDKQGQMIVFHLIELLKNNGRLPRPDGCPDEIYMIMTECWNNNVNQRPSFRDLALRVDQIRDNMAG

Chain of Histone deacetylase 1 (Q13547 whole entry): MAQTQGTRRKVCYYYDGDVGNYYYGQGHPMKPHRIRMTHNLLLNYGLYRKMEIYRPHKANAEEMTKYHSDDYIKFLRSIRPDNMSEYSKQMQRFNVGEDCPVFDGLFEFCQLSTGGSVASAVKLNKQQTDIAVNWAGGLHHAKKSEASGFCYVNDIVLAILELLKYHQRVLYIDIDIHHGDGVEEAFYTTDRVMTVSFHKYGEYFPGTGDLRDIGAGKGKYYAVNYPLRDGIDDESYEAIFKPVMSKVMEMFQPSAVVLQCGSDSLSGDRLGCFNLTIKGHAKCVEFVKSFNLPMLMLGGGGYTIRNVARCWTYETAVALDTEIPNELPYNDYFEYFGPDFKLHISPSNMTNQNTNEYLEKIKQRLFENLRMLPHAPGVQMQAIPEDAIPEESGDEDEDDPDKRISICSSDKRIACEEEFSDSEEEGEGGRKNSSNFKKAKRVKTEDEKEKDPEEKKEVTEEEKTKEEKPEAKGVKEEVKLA

Row | SMILES | IC50 (Heat shock protein HSP90) [µM] | IC50 (Histone deacetylase 1) [µM] | IC50 [1] [µM] | IC50 [2] [µM] | IC50 [3] [µM]
1 | CCNC(=O)c1cc2c(-c3cccc(OCCCCCn4cc(-c5ncnc6[nH]ccc56)cn4)c3)nc(N)nc2s1 | > 10 |  |  |  | 
2 | CCNC(=O)c1cc2c(-c3cc(OCCCCCCn4cc(-c5nc(Nc6ccc(NC(=O)CCCCCCC(=O)O)cc6)nc6[nH]ccc56)cn4)c(Cl)cc3Cl)nc(N)nc2s1 |  | > 100 | 6.3 | 20.2 | 
3 | CCNC(=O)c1cc2c(-c3cc(OCCCCCCn4cc(-c5ncnc6[nH]ccc56)cn4)c(Cl)cc3Cl)nc(N)nc2s1 | 0.11 |  |  |  | 1.71
4 | CCNC(=O)c1cc2c(-c3cc(OCCCCCCn4cc(-c5nc(Nc6ccc(NC(=O)CCCCCCC(=O)NO)cc6)nc6[nH]ccc56)cn4)c(Cl)cc3Cl)nc(N)nc2s1 |  | > 100 | 2.82 | > 100 | 14.1
5 | CCNC(=O)c1cc2c(-c3cccc(OCCCCn4cc(-c5ncnc6[nH]ccc56)cn4)c3)nc(N)nc2s1 | > 10 |  |  |  | > 10
6 | CCNC(=O)c1cc2c(-c3cc(OCCCCCn4cc(-c5ncnc6[nH]ccc56)cn4)c(Cl)cc3Cl)nc(N)nc2s1 | 0.4 |  |  |  | 3.45
7 | CCNC(=O)c1cc2c(-c3cccc(OCCCCCCn4cc(-c5ncnc6[nH]ccc56)cn4)c3)nc(N)nc2s1 | > 10 |  |  |  | 
8 | CCNC(=O)c1cc2c(-c3cccc(OCCCCCCOc4ccc(Nc5nc(-c6cnn(CCCCCCC(=O)NO)c6)c6cc[nH]c6n5)cc4)c3)nc(N)nc2s1 |  | 2.47 | 0.008 | > 100 | > 100
